# Reference: patent US20240417435A1, “DEFENSIN-DERIVED PEPTIDE WITH ANTIBACTERIAL ACTIVITY ALSO AGAINST MULTI-ANTIBIOTIC-RESISTANT BACTERIA” (priority 2021, published 2024)
# Like-named read-outs stand apart in the source and are kept apart here. Where a SMILES comes first, the peptide text is derived from it. Bridges are numbered along the chain shown (N, C = ends).
# What was measured:
# [1] = tested on: S. aureus ATCC 6538; format: cell-based, Staphylococcus aureus
# Description: (§1) The antimicrobial activity of peptide γ2 was evaluated versus Pseudomonas aeruginosa ATCC 27853, Escherichia coli ATCC 13762 and Staphylococcus aureus ATCC 6538, and versus multidrug-resistant (MDR) clinical isolates of Methicillin-Resistant Staphylococcus aureus (MRSA), extended-spectrum β-lactamase (ESBL)-producing E. coli, P. aeruginosa and Acinetobacter baumannii complex. The isolates were identified by mass spectrometry using the MALDI (matrix-assisted laser desorption/ionisation) mass spectrometer and the biochemical phenotyping method in a VITEKR 2 bioMérieux system (bioMérieux Italia S.p.a., Bagno a Ripoli, Florence, Italy), according to the manufacturer's instructions. The antibiotic susceptibility profile was evaluated with the VITEKR 2 bioMérieux System. The microorganisms were cultured in broth and agar at 37° C. The media used were BD Brain Heart Infusion broth (BHI) (BD, Franklin Lakes, NJ, USA) and BHI agar (OXOID, Basingstoke, Hampshire, UK), BD Trypticase Soy agar with 5% sheep's blood and MacConkey agar (OXOID, Basingstoke, Hampshire, UK). The isolates were stored frozen at −80° C. in BHI broth supplemented with 10% (v/v) glycerol (Carlo Erba Reagents, Milan, Italy) until use, and the work cultures were activated in the respective broths at 37° C. for 15-18 h.
# (§2) Assays of the antibacterial activity of peptide γ2, in both reduced and oxidised form, were conducted against P. aeruginosa ATCC 27853, E. coli ATCC 13762, S. aureus ATCC 6538 and MDR clinical isolates. The strains were cultured under aerobic conditions in BHI broth at 37° C. and incubated with peptide γ2 for 2 hours at 37° C. Various concentrations of peptide were used, ranging from 1 μM to 128 μM. Each test was conducted in triplicate with three independent cultures. The minimum inhibitory concentration (MIC) and the minimum bactericidal concentration (MBC) of the peptide were determined with a modified version of the Clinical and Laboratory Standards Institute broth microdilution assay, using a final inoculum concentration of 10^5 CFU/ml, as previously described (Scudiero O et al., Antimicrob Agents Chemother 2010; 54:2312-22; Scudiero O et al. Antimicrob Ag Chemother 2013; 57:1701-8).
# (§3) The MIC is indicated by the concentration interval, which comprise the upper growth limit and the first concentration which could not support visible bacterial growth after incubation. The MBC was defined as the lowest concentration at which no viable colonies were observed. The peptide concentrations were 128.0, 64.0, 32.0, 16.0, 8.0, 4.0, 2.0 and 1 μM. For the time-kill studies against the ATCC and MDR strains, the bacteria were cultured in BHI broth until the late log growth phase at 37° C. The bacterial suspensions, containing about 10^6 CFU/ml (adjusted by the spectrophotometer to OD600 nm), were diluted 1:100 in PBS1× and then incubated at 37° C. with or without the peptide, selected at concentrations corresponding to 1, 2 and 4×MIC (as determined above). At baseline and 1, 2, 3 and 5 hours after incubation, a portion of each sample was harvested, diluted in series in PBS1× and seeded on BHI agar. The plates were incubated for […] at 37° C., and the viable bacteria count was conducted by the CFU method. All the data were expressed as mean±SD of three independent experiments.
# [2] = tested on: MRSA strain 2; format: cell-based, Staphylococcus aureus
# Description: as §1, §2, §3
# [3] = tested on: MRSA strain 1; format: cell-based, Staphylococcus aureus
# Description: as §1, §2, §3
# [4] = tested on: MRSA strain 3; format: cell-based, Staphylococcus aureus
# Description: as §1, §2, §3
# [5] = tested on: E. coli ESBL strain 1; format: cell-based, Escherichia coli
# Description: as §1, §2, §3
# [6] = tested on: E. coli ESBL strain 2; format: cell-based, Escherichia coli
# Description: as §1, §2, §3
# [7] = tested on: E. coli ATCC 13762; format: cell-based, Escherichia coli
# Description: as §1, §2, §3
# [8] = tested on: P. aeruginosa MDR strain 1; format: cell-based, Pseudomonas aeruginosa
# Description: as §1, §2, §3
# [9] = tested on: P. aeruginosa ATCC 27853; format: cell-based, Pseudomonas aeruginosa
# Description: as §1, §2, §3
# [10] = tested on: P. aeruginosa MDR strain 2; format: cell-based, Pseudomonas aeruginosa
# Description: as §1, §2, §3
# [11] = tested on: A. baumannii MDR strain 1; format: cell-based, Acinetobacter baumannii complex
# Description: as §1, §2, §3
# [12] = tested on: A. baumannii MDR strain 2; format: cell-based, Acinetobacter baumannii complex
# Description: as §1, §2, §3
# [13] = tested on: HUVEC endothelial cells; test: Cell migration assay in Boyden chambers; format: cell-based; details: endothelial cells (HUVEC); 10 nM; 4 h
# Description: (§4) Cell migration assays were conducted as previously described (Bifulco K et al., Mol Cancer There 2013; 2:1981-93), using Boyden chambers and polyvinylpyrrolidone-free polycarbonate filters with 8 μm pores inserted between a lower and upper compartment. Briefly, the cell suspension (1×10^5 viable cells/mL of serum-free medium) was seeded in each upper chamber. The lower chambers were filled with DMEM only, DMEM containing 10 nM N-formyl-methionyl-leucylphenylalanine peptide (fMLF), as positive control, or increasing peptide γ2 concentration. Incubation was conducted for 4 h at 37° C. in air humidified with 5% CO2. At the end of the assay, the cells on the lower surface of the filter were fixed with ethanol and stained with haematoxylin, and 10 random fields/filter were counted with a 200× magnification. The extent of cell migration was expressed as a percentage of baseline cell migration evaluated in the absence of chemo-attractants, taken as 100% (CTRL).
# [14] = tested on: HT-1080 cells; test: Cell migration assay in Boyden chambers; format: cell-based; details: 10 nM, 4 h
# Description: as §4
# [15] = tested on: A549 cells; test: Cell migration assay in Boyden chambers; format: cell-based; details: 10 nM, 4 h
# Description: as §4
molecule,measurement,setting,value
CC[C@H](C)[C@@H]1NC(=O)[C@H](CCC(N)=O)NC(=O)[C@H](CCCNC(=N)N)NC(=O)[C@H](CCCNC(=N)N)NC(=O)[C@H](CCCCN)NC(=O)[C@@H]2CCCN2C(=O)[C@H](CC(C)C)NC(=O)[C@@H](NC(C)=O)CSSC[C@@H](C(=O)N[C@@H](CCCCN)C(=O)N[C@@H](CCCCN)C(N)=O)NC(=O)[C@H](CO)NC(=O)[C@H](CCCCN)NC(=O)[C@H](CCCNC(=N)N)NC(=O)CNC(=O)[C@H](CCCNC(=N)N)NC(=O)[C@H]([C@@H](C)O)NC(=O)[C@H](CO)NC(=O)[C@H](CO)NC(=O)[C@H](CCCCN)NC(=O)CNC1=O [Oxidised peptide γ2] (Ac-CLPKRRQIGKSSTRGRKSCKK-NH2; disulfide 1-19 (inferred)),MBC,[1],8 µM
same,MBC,[2],16 µM
same,MIC,[2],2 µM
same,MBC,[3],2 µM
same,MIC,[3],1 µM
same,MBC,[4],32 µM
same,MIC,[4],2 µM
same,MBC,[5],2 µM
same,MIC,[5],2 µM
same,MBC,[6],32 µM
same,MIC,[6],1 µM
same,MBC,[7],1 µM
same,MIC,[7],1 µM
same,MBC,[8],32 µM
same,MBC,[9],4 µM
same,MBC,[10],32 µM
same,MIC,[10],1 µM
same,MBC,[11],128 µM
same,MBC,[12]; MDR strain 2,4 µM
same,MIC,[12]; MDR strain 2,4 µM
same,MIC,[12]; multidrug-resistant clinical strain 2 of A. baumannii,4 µM
"N-formyl-methionyl-leucylphenylalanine peptide [fMLF, reference compound]","cell migration, % of the baseline cell migration",[13],166%
same,"cell migration, % of the baseline cell migration",[14],167%
same,"cell migration, % of the baseline cell migration",[15],153%
